Results as given in patent EP0219491B1, “OXINDOLE ALKALOIDS WITH PROPERTIES STIMULATING THE IMMUNITY SYSTEM AND PREPARATIONS CONTAINING THEM” (KEPLINGER, Klaus, priority 1984, dated 1986).

How the values were obtained:
[1] = system: Granulozytenfraktion (PMNL-Fraktion); experiment: Granulocyte test modified after BRANDT (phagocytosis of yeast cells by PMNL); format: cell-based, menschlichen Blut; settings: for Wirksamkeit im Granulozytentest: summary in words
Text: Neutrophile Granulozyten sind zusammen mit Makrophagen die wichtigsten Effektorzellen der Phagozytose und nehmen damit eine wichtige Stellung in der Infektabwehr ein. Sie stellen etwa 60-70% aller weissen Blutkörperchen im menschlichen Blut dar. Der Phagozytoseleistung dieser Granulozyten lässt sich in vitro nach einer von BRANDT (Scand. J. Haematol. Suppl 2, 1967) entwickelten und vonTYMPNER (Münchn. Med. WSchr. 8, 251, 1978) modifizierten Methodik messen.
Dabei wird aus dem Blut gesunder Probanden eine Granulozytenfraktion (PMNL-Fraktion) gewonnen.
Diese PMNL-Fraktion besteht hauptsächlich aus neutrophilen Granulozyten neben wenig eosinophilen und basophilen Granulozyten sowie Lymphozyten, Monozyten und Thrombozyten. Nach Zusatz einer definierten Menge von Hefezellen (Saccharomyces cerevisiae) und der zu testenden Substanz wird zunächst 10 min bei 37° C inkubiert, die Aufschwemmung auf einem Objektträger ausgestrichen und weitere 35 min bei Raumtemperatur inkubiert. Anschliessend werden die Ausstriche angefärbt und mikroskopisch ausgewertet. Pro Objektträger werden 100 PMNL-Zellen ausgewählt und bestimmt, wieviele Hefepartikel von den einzelnen Zellen phagozytiert wurden. Der Phagozytoseindex (PJ) gibt die durchschnittliche Anzahl von phagozytierten Hefepartikeln pro Granulocyt an. Die Steigerung (S) der Phagozytoseaktivität im Blindwert wurde berechnet nach: [formula]

[2] = system: Granulozyten; experiment: Chemiluminescence test (CL), respiratory burst of phagocytes activated with opsonised Zymosan; format: cell-based
Text: Obwohl der Granulozytentest nach BRANDT eine zuverlässige Methode zur Ermittlung phagozytosesteigernder Eigenschaften von Substanzen und Extrakten darstellt, ist er sehr zeit- und personalaufwendig. Eine Alternative bietet die neue Methode der Chemilumineszenzmessung phagozytierender Zellen.
Seitdem ALLEN et al. (Biochem. Biophys. Res. Commun, 47,129,1972) als erste die Lichtemission von neutrophilen Granulozyten während der Phagozytose von Latexpartikeln und verschiedener Bakterien entdeckten und NELSON et al. (Infect. Immun 14,129,1976) und WEIDEMANN et al. (FEBS Letters 89,136,1978) CL-Erscheinungen an phagozytierenden Blutmakrophagen (Monozyten) nachweisen konnten, wird diese Reaktion auch in der experimentellen und klinischen Immunologie angewendet. Der genaue Mechanismus der dabei ablaufenden Reaktion konnte allerdings bis heute noch nicht vollständig aufgeklärt werden. Zusammenfassend lässt sich die bei aktivierten Phagozyten auftretende CL folgendermassen darstellen: der Kontakt dieser Zellen mit Bakterien, Viren oder anderem körperfremden Material, z.B. auch chemische Substanzen, führt zunächst zu einer gesteigerten Sauerstoffaufnahme. Anschliessend werden in der Zelle aus dem molekularen Sauerstoff Superoxid-Anion-Radikale O2^- gebildet, die sich dann entweder spontan oder enzymatisch katalysiert in andere aktivierte Sauerstoffmoleküle, wie Wasserstoffperoxid (H202), Singulett-Sauerstoff (^1O2), Hydroxylradikale (OH) und Hypochlorit-Anionen (OCI-) umwandeln. Dieser Vorgang wird «respiratory burst» genannt.
Durch die Freisetzung der aktivierten Sauerstoffmoleküle in die unmittelbare Umgebung der phagozytierenden Zelle, wie auch in die phagozytische Vakuole selbst und durch die Aktivierung lysosomaler Enzyme können eingedrungene Mikroorganismen oder Tumorzellen geschädigt oder getötet werden. Auch andere Moleküle sind daran beteiligt, so z.B. sogenannte kationische Proteine .und Laktoferrin. Die Zellwände der Mikroorganismen werden durch Oxidation oder Reduktion angegriffen und teilweise zerstört. Als Nebeneffekt tritt dabei CL auf, da das Zellwandmaterial als chemilumineszierendes Substrat für die aktivierten Sauerstoffmoleküle dient.
Die geringe Lichtausbeute solcher CL-Reaktionen phagozytierender Zellen wird im in-vitro-Experiment durch den Zusatz von Substanzen erhöht, die durch aktivierten Sauerstoff oxidiert werden und dabei Licht bestimmter Wellenlänge erzeugen, welches physikalisch gemessen werden kann. Als Substrate eignen sich dabei Luminol (5-Amino-2,3-dihydro-1,4-phthalazindion) und Lucigenin (10,10'-Dimethyl-9,9'-biacridiniumdini- trat), welche die CL-Antwort um das 10^3fache steigern.
Durch den Einsatz empfindlicher Messgeräte, in denen die Photonenzählung mit Hilfe von Photomultipliern erfolgt, lässt sich die durch die oben genannten Substanzen verstärkte CL messen. Es wurde ein 6-Kanal-CL-Gerät Biolumat^@ LB 9505 der Fa. Berthold benutzt, das sechs Testungen zur gleichen Zeit ermöglicht. Darüberhinaus erlaubte es das verwendete Gerät auch, die CL-Antwort zeitabhängig zu registrieren. So konnten den Dosis-Wirkungs- Kurven als dritte Dimension die zeitabhängige Wirkung hinzugefügt werden.
Zur in-vitro-Untersuchung des phagozytosesteigenden Wirkung von Substanzen können entweder gereinigte Zellpopulationen von Granulozyten oder Makrophagen verwendet werden, oder die Messung erfolgt direkt in verdünntem Vollblut.
Die Aktivierung der Phagozyten erfolgt dabei durch feste Partikel, z.B. opsonierte Bakterien, Zy- mosan^@ und Latexpartikel, oder durch bestimmte gelöste Substanzen. Bekannte Aktivatoren sind z.B. verschiedene lonophoren und Fluorid-lonen.
• a) Vollblut: 460 µl Veronal®-gepufferte Kochsalzlösung • 200 µl verdünntes Vollblut • 100 pl Lucigenin-Lösung • 200 µl in PBS (phosphat-gepufferte Kochsalzlösung) gelöste Substanz bzw. PBS als Kontrolle • b) PMNL: 630 µl Veronal@-gepufferte Kochsalzlösung • 15 µl PMNL • 100 µl Lucigenin-Lösung 200 µl in PBS gelöste Substanz bzw. PBS als Kontrolle […]

[3] = system: Asciteszellen von Walker-250-Carcinosarkomen von Ratten; experiment: Cytotoxicity by 3H-thymidine incorporation test on ascites cells; format: cell-based; settings: Walker 256; 2 mg/ml; read-out: Mittelwert der Methotrexat-Hemmung
Text: Da im Granulozytentest einige Substanzen in hoher Konzentration die Granulozyten lysierten, wurde auch die zellschädigende Wirkung am Modell des 3H-Thymidineinbautests in Asciteszellen geprüft, um eine mögliche Beziehung zwischen Phagozytosesteigerung und Cytotoxizität auffinden zu können.
In diesem in-vitro-Testsystem nach WEITZEL et al (Hoppe-Seyler's Z. Physiorog. Chem. 348, 433, 1967) kann die Cytotoxizität von Substanzen durch Hemmung der DNA-Synthese von Tumorzellen zahlenmässig durch die veränderten Einbauraten von ^3H-Tymidin in Asciteszellen von […] von Ratten erfasst werden.
Die Ergebnisse wurden mit der Kontrolle verglichen und die Hemmeffekte in Prozent ausgedrückt. Relativierung der Testergebnisse Da die prozentuale Einbauhemmung bei gleichen Substanzen Schwankungen bis zu 30% zwischen einzelnen Versuchen zeigte, wurde Methotrexat®, welches als Folsäureantagonist die DNA-Synthese hemmt, als Bezugssubstanz in jeder Versuchsreihe mitgetestet. Der Mittelwert der Methotrexat®-Hemmung (43% bei 2 mg/ml) wurde zur Ermittlung der relativen Hemmung H der Substanzen herangezogen.

[4] = system: Makrophagen-Phagozytose; experiment: In vitro macrophage phagocytosis; format: cell-based; settings: Konzentrationen von 10-^4% und 10-^5%

Compound	Wirkung im Granulozytentest ([1]; tested up to 10^-4%)	Wirksamkeit im Granulozytentest [1]	prozentuelle Phagozytosesteigerung ([1]; Konzentration 10^-2 (in %))	prozentuelle Phagozytosesteigerung ([1]; Konzentration 10^-3 (in %))	prozentuelle Phagozytosesteigerung ([1]; Konzentration 10^-4 (in %))	prozentuelle Phagozytosesteigerung ([1]; Konzentration 10^-5 (in %))	also measured
O=c1cccc2n1C[C@@H]1CNC[C@H]2C1 [Cytisin, reference compound]	keine Wirkung						
CC[C@H]1CN2CC[C@]3(C(=O)Nc4ccccc43)[C@@H]2C[C@@H]1/C(=C\OC)C(=O)OC [Rhynchophyllin]		nicht wirksamen					
COC(=O)C1=CO[C@@H](C)[C@H]2CN3CC[C@@]4(C(=O)Nc5ccccc54)[C@@H]3C[C@H]12 [Isomitraphyllin, normal-Isomitraphyllin]		wirksamen	16,5%	27,0%	27,0%	19,4%	prozentuelle Phagozytosesteigerung ([1]; Konzentration 10^-6 (in %)): 5,7%; prozentuelle Steigerung der CL-Antwort ([2]; Konzentration 10^-3 %): 15,4%; prozentuelle Steigerung der CL-Antwort ([2]; Konzentration 10^-4 %): 15,7%; prozentuelle Steigerung der CL-Antwort ([2]; Konzentration 10^-5 %): 36,1%; prozentuelle Steigerung der CL-Antwort ([2]; Konzentration 10^-6 %): 46,7%; prozentuelle Steigerung der CL-Antwort ([2]; Konzentration 10^-7 %): 18,6%
COC(=O)C1=CO[C@@H](C)[C@H]2CN3CC[C@]4(C(=O)Nc5ccccc54)[C@@H]3C[C@H]12 [Mitraphyllin, normal-Mitraphyllin]		nicht wirksamen					
Huangshanin [reference compound]	Negativ						
CN(Cc1cnc2nc(N)nc(N)c2n1)c1ccc(C(=O)N[C@@H](CCC(=O)O)C(=O)O)cc1 [Methotrexat]							inhibition at 2000 µg/mL [3]: 43%
CC[C@]1(O)C[C@H]2CN(CCc3c([nH]c4ccccc34)[C@@](C(=O)OC)(c3cc4c(cc3OC)N(C=O)[C@H]3[C@@](O)(C(=O)OC)[C@H](OC(C)=O)[C@]5(CC)C=CCN6CC[C@]43[C@@H]65)C2)C1 [Vincristin, reference compound]							Wirkung im Granulozytentest ([1]; bis zu Verdünnungen von 10-^6%): keine Wirkungen; in-vitro-Hemmung der Makrophagen-Phagozytose [4]: in-vitro-Hemmung der Makrophagen-Phagozytose
COC(=O)C1=CO[C@@H](C)[C@@H]2CN3CC[C@@]4(C(=O)Nc5ccccc54)[C@H]3C[C@H]12 [Speciophyllin, reference compound]			10,5%	18,5%	26,0%	35,3%	
C=C[C@]12CN(C)[C@@H]3[C@H]4CO[C@H](C[C@H]41)[C@]1(C(=O)Nc4ccccc41)[C@@H]32 [Gelsemin, reference compound]			22,1%	40,4%	33,7%	8,2%	
CC[C@H]1CN2CC[C@@]3(C(=O)Nc4ccccc43)[C@@H]2C[C@@H]1/C(=C\OC)C(=O)OC [Isorhynchophyllin]		wirksamen	10,8%	25,2%	27,3%	16,1%	prozentuelle Phagozytosesteigerung ([1]; Konzentration 10^-6 (in %)): 8,8%
COc1cccc2c1cc([N+](=O)[O-])c1c(C(=O)O)cc3c(c12)OCO3 [Aristolochiasäure, reference compound]							Steigerung der Phagozytoseaktivität (respiratory burst) ([2]; CL-Test mit isolierten Granulozyten, Na-Salz): dosisabhängige Steigerung der Phagozytoseaktivität
C1CCN2C[C@@H]3C[C@@H](CN4CCCC[C@@H]34)[C@H]2C1 [Spartein, reference compound]	keine Wirkung						
CC[C@@]1(O)C(=O)OCc2c1cc1n(c2=O)Cc2cc3ccccc3nc2-1 [Camotothecin, reference compound]							Wirkung im Granulozytentest ([1]; bis zu Verdünnungen von 10-^6%): keine Wirkungen
COc1ccc2cc3[n+](cc2c1OC)CCc1cc2c(cc1-3)OCO2 [Berberin, reference compound]	unwirksam						
COC(=O)C1=CO[C@@H](C)[C@@H]2CN3CC[C@@]4(C(=O)Nc5ccccc54)[C@@H]3C[C@H]12 [Isopteropodin, allo-Isopteropodin]		wirksamen	23,4%	48,7%	55,0%	38,2%	prozentuelle Phagozytosesteigerung ([1]; Konzentration 10^-6 (in %)): 28,2%; prozentuelle Phagozytosesteigerung ([1]; Konzentration 10^-7 (in %)): 13,6%; prozentuelle Steigerung der CL-Antwort ([2]; Konzentration 10^-3 %): 67,2%; prozentuelle Steigerung der CL-Antwort ([2]; Konzentration 10^-4 %): 66,0%; prozentuelle Steigerung der CL-Antwort ([2]; Konzentration 10^-5 %): 55,7%; prozentuelle Steigerung der CL-Antwort ([2]; Konzentration 10^-6 %): 68,1%; prozentuelle Steigerung der CL-Antwort ([2]; Konzentration 10^-7 %): 55,3%; prozentuelle Steigerung der CL-Antwort ([2]; Konzentration 10^-8 %): 31,2%
Thalifaberin [reference compound]	Negativ						
Thalifabin [reference compound]	Negativ						
COC(=O)C1=CO[C@@H](C)[C@@H]2CN3CC[C@]4(C(=O)Nc5ccccc54)[C@@H]3C[C@H]12 [Pteropodin, allo-Pteropodin]		wirksamen	11,2%	21,7%	26,1%	23,0%	prozentuelle Steigerung der CL-Antwort ([2]; Konzentration 10^-3 %): 10,6%; prozentuelle Steigerung der CL-Antwort ([2]; Konzentration 10^-4 %): 10,0%; prozentuelle Steigerung der CL-Antwort ([2]; Konzentration 10^-5 %): 23,7%; prozentuelle Steigerung der CL-Antwort ([2]; Konzentration 10^-6 %): 15,4%
